Test results taken from patent US6548486B1, “Fatty acid esters of nucleoside analogs” (Norsk Hydro a.s., priority 1991, dated 2003).

Legend:
[1] = system: HSV 2 (3rd passage of a clinical isolate); test: Plaque method: tissue culture of HSV 2 in vero cells; type: cell-based; conditions: Ara T esters at 3.9 μmol/l, FIG. 2
[2] = system: HSV 2 strain relatively resistent to ACV; test: Plaque method with a HSV 2 strain relatively resistent to ACV; type: cell-based; conditions: 0.9 μmol/l versus 2.2 μmol/l, FIG. 1B
Protocol: A virus preparation of HSV 2 (3rd passage of a clinical isolate) is diluted to 3×10^3 pfu/well, and thereafter inocculated on cells and incubated for 1 hour in a tissue culture of vero cells. At that time the virus is incorporated into the cells.
These cells are then cultivated for 24 hours with an anti-viral agent. Thereafter they are placed under freezing conditions, which lead to the disruption of the cells and free virus appear under the melting process. Dilutions of either 1/100 or 1/10000 are prepared and added to fresh tissue cultures. Incubation for 1 hour leads to incorporation of virus in the cells. Carboxymethylcellulose (CMC) is added in order to prohibit the migration of virus between the cells through the medium. Spread of virus by cell contact is still effective in causing the formation of plaques.
One plaque will represent one infectious virus. Thus the counting of plaques gives a precise quantitation of the number of infectious virus.
In a test done with a HSV 2 strain relatively resistent to ACV, the test compounds, ACV, ACV-oleate and ACV-elaidate, were added at 0.9 μmol/l or 2.2 μmol/l.

Herpes virus 2 = test: In vivo reduced mortality, Herpes Simplex Virus 2 infected mice; design: species or system female NMRI mice
From the text: The in vivo experiments were done using 3-4 weeks old female NMRI mice. This strain of mice is sensitive to the human herpes virus, up to an age of about 6 weeks, where after they become relatively resistant. Mice below this critical age were used, having a weight of 13-17 grams.
Herpes virus 2 which were third passage isolates were inocculated on the left ear lobe by a standarized procedure. […] Thus HSV 2 is especially suitable as a system for evaluation of the therapeutic efficiency by counting the number of cases of encephalitis.
The animals received approximately 12 mg/kg body weight/day through the drinking water. The compounds were added to the drinking water formulated as micelles with deoxycholate.
Both the control group and the groups receiving the test compounds included 10 animals in each group. The test compounds were ACV-elaidate and ACV in comparison with the control. Treatment was started on day 3 from inocculation. At that time the infection is well established in the central nerve system.

CCCCCCCC/C=C\CCCCCCCC(=O)OC[C@H]1O[C@@H](n2cc(C)c(=O)[nH]c2=O)[C@@H](O)[C@@H]1O (relative stereo) [Ara T oleate, 5′-O-(cis-9″-Octadecenoyl)-1-β-D-Arabinofuranosyl-Thymine]
inhibition [1]: 100%

Nc1nc2c(ncn2COCCO)c(=O)[nH]1 [ACV, 9-(2-Hydroxyethoxymethyl)-Guanine, reference compound]
inhibitory effect at increasing concentration [2]: remains at the same level

CCCCCCCC/C=C/CCCCCCCC(=O)OCCOCn1cnc2c(=O)[nH]c(N)nc21 [ACV-elaidate, 9-(2′-(trans-9″-Octadecenoyloxy)ethoxymethyl)-Guanine]
inhibitory effect at increasing concentration [2]: strongly enhanced at the higher concentration
survival rate (Herpes virus 2; approximately 12 mg/kg body weight/day through the drinking water, treatment started day 3 from inocculation, FIG. 3): 40%
signs of encephalitis (Herpes virus 2; surviving animals after 21 days): no signs of encephalitis

CCCCCCCC/C=C\CCCCCCCC(=O)OCCOCn1cnc2c(=O)[nH]c(N)nc21 [ACV-oleate, 9-(2′-(cis-9′-Octadecenoylcxy)ethoxymethyl)-Guanine]
inhibitory effect at increasing concentration [2]: strongly enhanced at the higher concentration
